According to the supplement of paper PMC13380429:

Legend:
Details in all cases: 72 h
Vero E6 [1] = experiment: relative viability EC50 (midpoint between 100% and the lowest measured viability); higher = less toxic
Caco-2 [2] = experiment: as above
U2OS [3] = experiment: as above
HepG2 [4] = experiment: as above
Calu-3 [5] = experiment: as above
Vero E6 [6] = experiment: drug sensitivity score (DSS) for viability; higher = more toxic; extreme values may be limits of the assay
Caco-2 [7] = experiment: as above
U2OS [8] = experiment: as above
HepG2 [9] = experiment: as above
Calu-3 [10] = experiment: as above
Vero E6 [11] = experiment: cell viability relative to DMSO; higher = less toxic
Caco-2 [12] = experiment: as above
U2OS [13] = experiment: as above
HepG2 [14] = experiment: as above
Calu-3 [15] = experiment: as above

Row | SMILES | relative viability EC50 (Vero E6 [1]) | relative viability EC50 (Caco-2 [2]) | relative viability EC50 (U2OS [3]) | relative viability EC50 (HepG2 [4]) | relative viability EC50 (Calu-3 [5]) | drug sensitivity score (Vero E6 [6]) | drug sensitivity score (Caco-2 [7]) | drug sensitivity score (U2OS [8]) | drug sensitivity score (HepG2 [9]) | drug sensitivity score (Calu-3 [10]) | cell viability (Vero E6 [11]; 1 nM) | cell viability (Vero E6 [11]; 10 nM) | cell viability (Vero E6 [11]; 100 nM) | cell viability (Vero E6 [11]; 1000 nM) | cell viability (Vero E6 [11]; 10000 nM) | cell viability (Caco-2 [12]; 1 nM) | cell viability (Caco-2 [12]; 10 nM) | cell viability (Caco-2 [12]; 100 nM) | cell viability (Caco-2 [12]; 1000 nM) | cell viability (Caco-2 [12]; 10000 nM) | cell viability (U2OS [13]; 1 nM) | cell viability (U2OS [13]; 10 nM) | cell viability (U2OS [13]; 100 nM) | cell viability (U2OS [13]; 1000 nM) | cell viability (U2OS [13]; 10000 nM) | cell viability (HepG2 [14]; 1 nM) | cell viability (HepG2 [14]; 10 nM) | cell viability (HepG2 [14]; 100 nM) | cell viability (HepG2 [14]; 1000 nM) | cell viability (HepG2 [14]; 10000 nM) | cell viability (Calu-3 [15]; 1 nM) | cell viability (Calu-3 [15]; 10 nM) | cell viability (Calu-3 [15]; 100 nM) | cell viability (Calu-3 [15]; 1000 nM) | cell viability (Calu-3 [15]; 10000 nM)
1 | CCN(CC)C(=O)c1ccc(C2=CC3(CCNCC3)Oc3cccc(O)c32)cc1 [ADL5859] | > 10 µM | > 10 µM | > 10 µM | > 10 µM | > 10 µM | 0 | 0 | 0 | 0 | 0 | 94.1% | 104% | 94.9% | 98.5% | 108% | 93% | 99.8% | 91.9% | 97.3% | 110% | 95.4% | 98.2% | 100% | 103% | 104% | 103% | 99.5% | 104% | 100% | 101% | 92.9% | 96.9% | 91.8% | 105% | 105%
2 | Oc1c(I)cc(I)cc1I [AM-24] | > 10 µM | > 10 µM | > 10 µM | > 10 µM | > 10 µM | 0 | 0 | 0 | 0 | 0 | 96.8% | 103% | 99.6% | 104% | 97.2% | 99.5% | 97.6% | 93% | 88.5% | 101% | 97.8% | 97.8% | 103% | 97.7% | 104% | 95.4% | 103% | 89.9% | 108% | 102% | 96.7% | 95% | 104% | 97.3% | 101%
3 | O=C(Nc1ccc2c(O)cc(S(=O)(=O)O)cc2c1)Nc1ccc2c(O)cc(S(=O)(=O)O)cc2c1 [AMI-1] | > 10 µM | > 10 µM | > 10 µM | > 10 µM | > 10 µM | 0 | 0 | 0 | 0 | 0 | 97.2% | 102% | 102% | 106% | 96% | 87% | 97.8% | 92.8% | 93.5% | 97.2% | 103% | 102% | 99% | 102% | 101% | 101% | 110% | 106% | 107% | 94.3% | 104% | 100% | 100% | 109% | 99.8%
4 | C=CC(=O)Nc1cc(Nc2nccc(-c3c[nH]c4ccccc34)n2)c(OC)cc1N(C)CCN(C)C [AZ5104] | 0.397 µM | 0.563 µM | 1.13 µM | 1.19 µM | 0.0093 µM | 15.6 | 10.3 | 9.8 | 9.3 | 27.9 | 88.8% | 93.8% | 61.6% | 49.7% | 0.2% | 89.1% | 87.6% | 81.7% | 62.1% | 24.3% | 104% | 95.2% | 95.4% | 59.6% | 8.6% | 98.2% | 94.2% | 84.2% | 64% | 9.2% | 82.8% | 56.2% | 32.5% | 33.3% | 17.4%
5 | COC1CCN(C(=O)c2cc(Cc3n[nH]c(=O)c4ccccc34)ccc2F)CC1 [AZD2461] | > 10 µM | > 10 µM | > 10 µM | > 10 µM | > 10 µM | 0 | 0 | 0 | 3.4 | 0 | 99.3% | 97% | 99.7% | 97.9% | 99.9% | 90.3% | 97.5% | 95.5% | 100% | 93.6% | 94.4% | 96% | 99.1% | 94.4% | 100% | 99.5% | 86% | 85.5% | 93.8% | 87.2% | 86.7% | 100% | 79.8% | 69.5% | 92.5%
6 | COc1ccc(-c2ccc3ncc4c(c3c2)n(-c2ccc(N3CCNCC3)c(C(F)(F)F)c2)c(=O)n4C)cn1 [BGT226] | 0.14 µM | 0.0397 µM | 0.0293 µM | 0.107 µM | 0.0321 µM | 21 | 26.8 | 29.8 | 22.8 | 28.4 | 98% | 93.9% | 52.2% | 22.2% | -0.2% | 88.6% | 69% | 35.8% | 19.3% | 0.6% | 101% | 74.2% | 22.8% | 0.1% | -0.2% | 110% | 91.5% | 50.8% | 11.5% | -0.3% | 110% | 58.3% | 29.6% | 23.2% | 0%
7 | CCNC(C)CN1CCc2c(c(=O)oc3ccccc23)C1 (stereo not given) [CI-923] | > 10 µM | > 10 µM | > 10 µM | > 10 µM | > 10 µM | 0 | 0 | 0 | 0 | 0 | 99.7% | 103% | 104% | 95.9% | 94.5% | 103% | 102% | 103% | 97.9% | 93.6% | 99% | 99.3% | 95.9% | 101% | 95.8% | 99.6% | 93.1% | 105% | 97.5% | 109% | 99.5% | 109% | 100% | 111% | 99.1%
8 | COc1ccc(-c2nc(N3CCOCC3)c3sc(CN(C)c4ncc(C(=O)NO)cn4)cc3n2)cn1 [CUDC-907] | 0.0166 µM | 0.0177 µM | 0.006 µM | 0.0069 µM | 0.0152 µM | 34 | 33 | 38.7 | 37.9 | 32 | 103% | 78.2% | 0% | -0.3% | -0.4% | 81.5% | 73.2% | 3.5% | 0.6% | 1% | 90.9% | 34.4% | 0.6% | 0.3% | 0.4% | 90.2% | 39.6% | 0.6% | -0.1% | -0.1% | 85.2% | 65.4% | 14.1% | 5.1% | 3.7%
9 | CC(C)N(CCc1c[nH]c2ccccc12)C(C)C [DIPT] | > 10 µM | > 10 µM | > 10 µM | > 10 µM | > 10 µM | 0 | 0 | 0 | 0 | 0 | 103% | 98.9% | 101% | 95.1% | 97.4% | 95% | 103% | 107% | 101% | 102% | 101% | 99.7% | 98.2% | 102% | 96.6% | 93.2% | 86.3% | 99.5% | 86% | 95.7% | 85.7% | 95.4% | 97.5% | 96% | 103%
10 | CS(=O)(=O)c1ccc(-c2cnc(NCc3ccco3)n3cnnc23)cc1 [EED226] | > 10 µM | > 10 µM | > 10 µM | > 10 µM | > 10 µM | 0 | 0 | 0 | 0.1 | 0 | 107% | 100% | 103% | 105% | 98% | 95.7% | 82.8% | 104% | 88.1% | 103% | 98.3% | 97.1% | 98.5% | 97.4% | 98% | 99.8% | 92.8% | 94.6% | 102% | 87% | 102% | 102% | 94.4% | 111% | 111%
11 | CCC(CC)n1ccc2c(C(=O)NCc3c(C)cc(C)[nH]c3=O)cc(C#N)cc21 [EI1] | > 10 µM | > 10 µM | > 10 µM | > 10 µM | > 10 µM | 0 | 0 | 0 | 0 | 0 | 105% | 100% | 107% | 97.5% | 104% | 105% | 95.1% | 97.2% | 95.4% | 93.6% | 98.7% | 99.4% | 93.8% | 96.1% | 101% | 90.7% | 92.3% | 101% | 93.7% | 97.6% | 94.2% | 96.6% | 101% | 109% | 102%
12 | CCOc1cccc(NC(=O)c2ccc(N3CCCC3)c(C(F)(F)F)c2)c1 [EPPTB] | > 10 µM | > 10 µM | > 10 µM | > 10 µM | > 10 µM | 0 | 1.6 | 0 | 0 | 0.2 | 101% | 102% | 97.3% | 95.5% | 101% | 106% | 101% | 89% | 92.7% | 86.4% | 101% | 99.2% | 97.4% | 99.1% | 90.9% | 90.9% | 96.2% | 96.4% | 91.5% | 97.5% | 98.9% | 99.5% | 98.3% | 102% | 83.9%
13 | CCCCC(=O)O[C@H]1CC[C@H]2[C@@H]3CCc4cc(O)ccc4[C@H]3CC[C@]12C [ESTRADIOL VALERATE] | > 10 µM | > 10 µM | > 10 µM | > 10 µM | > 10 µM | 0 | 0.1 | 0 | 0 | 0.6 | 101% | 102% | 103% | 99.5% | 100% | 104% | 94.6% | 97% | 105% | 85.8% | 106% | 108% | 103% | 106% | 96.5% | 109% | 106% | 101% | 97.6% | 108% | 99.8% | 104% | 96.4% | 97.8% | 83.8%
14 | C[C@@H](NC(=O)[C@@H](N)Cc1ccc(O)cc1)C(=O)NCC(=O)N(C)[C@@H](Cc1ccccc1)C(=O)N[C@H](CO)CC[S+](C)[O-] (stereo not given in full) [FK-33-824] | > 10 µM | > 10 µM | > 10 µM | > 10 µM | > 10 µM | 0 | 0 | 0 | 0 | 0 | 99.5% | 97.5% | 93.3% | 97% | 107% | 98% | 95.7% | 90.7% | 96.1% | 102% | 98.8% | 106% | 98.6% | 101% | 100% | 98.9% | 93.7% | 109% | 101% | 100% | 98.7% | 94.1% | 99.4% | 92.1% | 92.6%
